The target in data set [1] is T1, 5-hydroxytryptamine receptor 6 (Homo sapiens, UniProt P50406). The data set can be described thus: Displacement of [3H]-LSD from human full length 5HT6R expressed in HEK293 cells by radioligand binding assay. Type of data set: cell-based.
In data set [2] the target is 5-hydroxytryptamine receptor 2A (Homo sapiens, UniProt P28223). The data set can be described thus: Displacement of [3H]-ketanserin from 5-HT2AR (unknown origin) expressed in CHO-K1 cells by radioligand binding assay. The format is cell-based.
Data set [3] has as its target T2, D(2) dopamine receptor (Homo sapiens, UniProt P14416). The data set can be described thus: Displacement of [3H]-raclopride from human full length D2L receptor expressed in HEK293 cells by radioligand binding assay. The format is cell-based. In general terms: Loss of bound radioactivity is the signal in a displacement assay; it reports binding, not function.
Data set [4] concerns the target T3, 5-hydroxytryptamine receptor 1A (Homo sapiens, UniProt P08908).
T3 sequence (P08908 whole entry): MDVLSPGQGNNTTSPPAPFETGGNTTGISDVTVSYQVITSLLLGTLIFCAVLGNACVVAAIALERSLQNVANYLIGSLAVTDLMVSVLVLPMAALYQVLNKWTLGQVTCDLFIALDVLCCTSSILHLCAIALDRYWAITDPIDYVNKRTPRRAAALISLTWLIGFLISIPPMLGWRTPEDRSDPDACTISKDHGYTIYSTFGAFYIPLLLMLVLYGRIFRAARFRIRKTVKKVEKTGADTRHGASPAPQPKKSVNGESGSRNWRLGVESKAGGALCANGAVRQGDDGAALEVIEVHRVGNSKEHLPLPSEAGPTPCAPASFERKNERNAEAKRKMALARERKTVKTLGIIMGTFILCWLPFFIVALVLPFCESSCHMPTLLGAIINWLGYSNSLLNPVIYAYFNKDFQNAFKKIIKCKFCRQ
The data set is described as follows: Displacement of [3H]-[…] from human full length 5-HT1AR expressed in HEK293 cells by radioligand binding assay. The format is cell-based.

In data set [5] the target is 5-hydroxytryptamine receptor 7 (Homo sapiens, UniProt P34969). The data set is described as follows: Displacement of [3H]-5-CT from human full length 5HT7BR expressed in HEK293 cells by radioligand binding assay. The format is cell-based.
The target in data set [6] is T2, D(2) dopamine receptor. The data set is described as follows: Binding affinity to D2L receptor (unknown origin) assessed as inhibition constant.
Data set [7] addresses T1, 5-hydroxytryptamine receptor 6. The data set can be described thus: Binding affinity to 5-HT6R (unknown origin) assessed as inhibition constant.
Data set [8] concerns the target T3, 5-hydroxytryptamine receptor 1A. The data set is described as follows: Binding affinity to 5-HT1AR (unknown origin) assessed as inhibition constant.
Data set [9] addresses T4, 5-hydroxytryptamine receptor 1A (Homo sapiens) (UniProt P08908).
T4 sequence (whole entry): T3 sequence (P08908 whole entry)
The data set can be described thus: Binding affinity to human full length 5-HT1AR expressed in HEK293 cells by Cheng-Prusoff equation analysis. The format is cell-based. The note with it: filed as antagonist.

Data set [10] is described as follows: Permeability coefficient of the compound in PBS buffer at pH 7.4 incubated for 5 hrs by PAMPA-based LC-MS analysis. The format is ADME. The note with it: read-out: Kp. Background: PAMPA measures passive passage across an artificial lipid membrane.
For the next data set, the species on record is Homo sapiens. The data set is described as follows: Selectivity ratio of Ki for human full length D2L receptor expressed in HEK293 cells to Ki for human full length 5-HT1AR expressed in HEK293 cells. Type of data set: cell-based.
Data set [11] concerns the target T3, 5-hydroxytryptamine receptor 1A. The data set is described as follows: Displacement of [3H]-[…] from human 5-HT1AR in human brain tissue by radioligand binding assay. The format is tissue-based.
Data set [12] is described as follows: Hepatotoxicity in human HepG2 cells assessed as reduction in cell viability at 50 to 100 uM incubated for 72 hrs by MTS assay. Type of data set: toxicity, cell-based. As to conditions: hepg2, 72 h, dose 50-100 µM.
Data set [13] is described as follows: Hepatotoxicity in human HepG2 cells at 1 to 10 uM incubated for 72 hrs by MTS assay. Type of data set: toxicity, cell-based. As to conditions: hepg2, 72 h, dose 1-10 µM. (Formazan colour is commonly taken as a measure of viable cells.)
For another data set, the target named is CYP3A4 (Homo sapiens, UniProt P08684). The data set is described as follows: Inhibition of CYP3A4 (unknown origin) at 10 uM by luminescence based Glo assay. Type of data set: ADME. As to conditions: CYP3A4 enzyme (unknown origin).
Data set [14] is described as follows: Metabolic stability in mouse liver microsomes assessed as parent compound remaining at 50 uM measured after 120 mins by UPLC-MS analysis. Type of data set: ADME, Microsome. As to conditions: read-out: Stability.

pKi: −log10 of the molar value.

T1 sequence (P50406 whole entry): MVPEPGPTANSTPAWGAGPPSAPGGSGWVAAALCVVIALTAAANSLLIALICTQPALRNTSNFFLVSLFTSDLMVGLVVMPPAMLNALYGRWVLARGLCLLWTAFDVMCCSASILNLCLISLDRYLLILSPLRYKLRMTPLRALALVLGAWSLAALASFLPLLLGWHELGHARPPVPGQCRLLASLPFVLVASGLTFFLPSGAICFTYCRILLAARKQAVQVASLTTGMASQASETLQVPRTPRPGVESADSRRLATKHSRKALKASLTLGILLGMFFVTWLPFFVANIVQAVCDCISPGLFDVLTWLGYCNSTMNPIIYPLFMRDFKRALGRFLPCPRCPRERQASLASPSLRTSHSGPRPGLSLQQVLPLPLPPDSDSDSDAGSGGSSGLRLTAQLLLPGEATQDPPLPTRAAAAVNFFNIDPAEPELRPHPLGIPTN
T2 sequence (P14416 whole entry): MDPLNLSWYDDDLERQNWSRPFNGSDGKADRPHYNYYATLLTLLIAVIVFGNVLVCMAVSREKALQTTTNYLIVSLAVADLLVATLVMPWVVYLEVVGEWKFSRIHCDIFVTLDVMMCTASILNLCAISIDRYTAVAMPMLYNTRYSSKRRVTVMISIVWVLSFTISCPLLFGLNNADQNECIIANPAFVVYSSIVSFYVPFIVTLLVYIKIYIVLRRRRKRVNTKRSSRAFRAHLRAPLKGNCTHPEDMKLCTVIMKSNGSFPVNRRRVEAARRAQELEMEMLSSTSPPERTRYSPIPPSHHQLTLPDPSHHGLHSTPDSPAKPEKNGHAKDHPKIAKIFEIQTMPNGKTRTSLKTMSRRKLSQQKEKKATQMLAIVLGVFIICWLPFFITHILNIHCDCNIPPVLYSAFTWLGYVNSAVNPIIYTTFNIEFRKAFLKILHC
5-hydroxytryptamine receptor 2A, sequence (P28223 whole entry): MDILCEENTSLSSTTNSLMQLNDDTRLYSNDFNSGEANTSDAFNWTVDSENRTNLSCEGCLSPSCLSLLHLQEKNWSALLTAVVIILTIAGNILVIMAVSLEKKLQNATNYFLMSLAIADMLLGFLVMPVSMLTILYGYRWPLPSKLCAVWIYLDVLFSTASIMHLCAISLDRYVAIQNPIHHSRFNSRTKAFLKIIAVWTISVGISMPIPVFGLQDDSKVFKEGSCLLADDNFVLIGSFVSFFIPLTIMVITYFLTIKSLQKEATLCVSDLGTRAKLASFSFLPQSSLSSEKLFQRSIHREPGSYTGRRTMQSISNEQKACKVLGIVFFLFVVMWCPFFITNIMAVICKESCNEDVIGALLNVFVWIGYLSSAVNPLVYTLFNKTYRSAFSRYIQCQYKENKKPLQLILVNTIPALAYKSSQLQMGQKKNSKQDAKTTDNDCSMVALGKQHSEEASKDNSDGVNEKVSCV
5-hydroxytryptamine receptor 7, sequence (P34969 whole entry): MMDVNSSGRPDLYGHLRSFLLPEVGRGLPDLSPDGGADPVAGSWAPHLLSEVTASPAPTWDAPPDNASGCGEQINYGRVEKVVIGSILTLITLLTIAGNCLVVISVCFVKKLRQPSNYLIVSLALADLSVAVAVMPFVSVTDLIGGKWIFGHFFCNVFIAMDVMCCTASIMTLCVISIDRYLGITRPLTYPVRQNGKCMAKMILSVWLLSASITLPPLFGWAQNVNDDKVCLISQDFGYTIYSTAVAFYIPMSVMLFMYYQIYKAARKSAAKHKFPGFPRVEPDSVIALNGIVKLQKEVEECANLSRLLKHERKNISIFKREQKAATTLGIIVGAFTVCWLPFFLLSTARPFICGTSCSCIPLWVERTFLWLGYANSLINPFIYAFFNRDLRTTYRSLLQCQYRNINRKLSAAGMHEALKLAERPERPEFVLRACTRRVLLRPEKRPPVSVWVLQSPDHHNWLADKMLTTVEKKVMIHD
CYP3A4, sequence (P08684 whole entry): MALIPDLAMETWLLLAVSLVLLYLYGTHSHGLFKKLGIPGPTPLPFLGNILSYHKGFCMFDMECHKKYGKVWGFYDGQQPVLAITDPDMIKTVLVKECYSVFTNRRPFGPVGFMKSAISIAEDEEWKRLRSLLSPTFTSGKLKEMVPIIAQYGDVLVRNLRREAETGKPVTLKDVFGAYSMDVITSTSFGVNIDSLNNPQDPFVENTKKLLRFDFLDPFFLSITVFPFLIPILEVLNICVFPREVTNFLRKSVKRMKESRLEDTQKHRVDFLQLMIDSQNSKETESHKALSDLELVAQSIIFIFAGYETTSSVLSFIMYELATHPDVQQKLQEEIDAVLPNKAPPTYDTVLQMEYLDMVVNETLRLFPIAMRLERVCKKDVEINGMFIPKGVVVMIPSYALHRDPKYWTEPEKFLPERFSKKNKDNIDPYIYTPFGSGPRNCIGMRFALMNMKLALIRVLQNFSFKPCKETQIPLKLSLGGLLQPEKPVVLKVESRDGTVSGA

Take `O=c1n(CCCCCCN2CCN(c3cccc4ccccc34)CC2)nc2ccccn12`: the pKi in data set [1] was 6.55; in data set [2], 6.65; on D(2) dopamine receptor [3] it was 7.49; in data set [4] it was 8.22; in data set [5], 6.73.
On to `O=c1n(Cc2ccc(CN3CCN(c4cccc(Cl)c4)CC3)cc2)nc2ccccn12`, for which the pKi in data set [1] is 5.94; in [2] it was 5.97; on D(2) dopamine receptor [3], 6.83; in data set [4], 7.28; in data set [5], 5.46.
Consider `O=c1n(CCCCCCN2CCN(c3cccc(Cl)c3)CC2)c2cccc3c2n1CCC3`, for which the pKi in data set [1] is 5.94; in data set [2], 7.18; at D(2) dopamine receptor [3], 7.74; in data set [4], 7.13; in data set [5], 7.21.
For `O=c1n(CCCCCCN2CCN(c3cccc(C(F)(F)F)c3)CC2)nc2ccccn12`, the pKi in [1] is 6.39; in data set [2], 6.54; on D(2) dopamine receptor [3], 7.21; in data set [4], 7.77; in data set [5], 5.97.
In the same order, the values of `NC(=O)N1CCN(c2cccc(Cl)c2)CC1` are 5.13, 4.49, 3.94, 5.15 and 4.64.
Take `Clc1cccc(N2CCNCC2)c1` [CHLOROPHENYLPIPERAZINE]: the pKi was below 5.00 at D(2) dopamine receptor [6], 5.76 in [7] and 7.38 in data set [8].
On to `O=c1n(CCCCCCN2CCN(c3cccc4cccnc34)CC2)nc2ccccn12`, for which the negative-log Ki (pKi) in data set [1] was 5.38; in data set [2] it was 5.66; at D(2) dopamine receptor [3], 6.84; in [4] it was 8.52; in [5], 6.18. For the same compound, in data set [9], the Kb is 3.6 nM.
Take `Cn1c(=O)c2c(ncn2C)n(C)c1=O` [CAFFEINE]: in data set [10], the Papp at 5 h is 12.2 ×10⁻⁶ cm/s.
Regarding `O=c1n(CCCCCCN2CCN(c3cccc(Cl)c3Cl)CC2)nc2ccccn12`, the pKi is 6.52 in [1]; 7.33 in [2]; 8.05 on D(2) dopamine receptor [3]; 8.15 in data set [4]; 6.61 in data set [5].
For the compound `NS(=O)(=O)NCCCCCCN1CCN(c2cccc(Cl)c2)CC1`, the pKi in data set [1] is 5.82; in data set [2], 6.48; at D(2) dopamine receptor [3], 6.64; in data set [4] it was 7.68; in data set [5], 6.78.
Consider `O=c1n(CCCCCCN2CCN(c3cccc4c3OCCO4)CC2)nc2ccccn12`, for which the pKi is 5.55 in data set [1]; 6.36 in [2]; 7.22 at D(2) dopamine receptor [3]; 9.00 in data set [4]; 6.57 in data set [5]. The Ratio Ki in the data set listed under Homo sapiens stood at 60. Besides, in data set [9], the Kb came to 2 nM.
With `O=c1[nH]c2ccccc2n1CCN1CCN(c2cccc(C(F)(F)F)c2)CC1` [FLIBANSERIN], the pKi in data set [11] was 7.93.
With `O=c1n(Cc2ccc(CN3CCN(c4ccc(Cl)cc4)CC3)cc2)nc2ccccn12`, the pKi in [1] was 5.67; in [2], 5.84; on D(2) dopamine receptor [3], 5.86; in data set [4], 6.33; in data set [5] it was 3.70.
On to `NC(=O)NCCCCCCN1CCN(c2cccc(Cl)c2)CC1`, for which the pKi in [1] is 5.31; in data set [2] it was 6.71; at D(2) dopamine receptor [3], 6.63; in data set [4] it was 7.41; in [5], 6.74.
Take `O=c1n(CC2CCC(CN3CCN(c4cccc(Cl)c4)CC3)CC2)nc2ccccn12` (stereo not given): the pKi was 5.34 in data set [1]; 6.31 in data set [2]; 6.25 at D(2) dopamine receptor [3]; 7.51 in [4]; 6.59 in data set [5]. The Ratio Ki in the data set listed under Homo sapiens is 18.
`O=S1(=O)N(CCCCCCN2CCN(c3cccc(Cl)c3)CC2)c2cccc3c2N1CCC3`: the pKi is 5.77 in data set [1]; 6.55 in data set [2]; 6.60 at D(2) dopamine receptor [3]; 7.15 in [4]; 6.79 in [5].
Consider `O=C(NCCCCCCn1nc2ccccn2c1=O)N1CCN(c2cccc(Cl)c2)CC1`, for which the Activity result in data set [12] is recorded as “Toxic”; in data set [13] it was “Non-Toxic”. Further, the pKi in data set [1] is 5.59; in data set [2], 6.28; on D(2) dopamine receptor [3], 5.71; in [4], 7.46; in data set [5], 6.34. Besides, the Ratio Ki in the data set listed under Homo sapiens stood at 55. The inhibition at 10 µM on CYP3A4 stood at 75%. Besides, the Papp at 5 h in [10] amounted to 2.9 ×10⁻⁶ cm/s. Also, in data set [14], the remaining at 2 h, 50 µM was determined as 0%.
Turning to `S=c1n(CCCCCCN2CCN(c3cccc(Cl)c3)CC2)c2cccc3c2n1CCC3`, the pKi in data set [1] was 6.24; in data set [2], 6.59; at D(2) dopamine receptor [3] it was 7.07; in data set [4], 6.69; in [5], 6.77.

In general, pKi refers to −log10 of the Ki, conventionally taken in molar units. By Kb is commonly meant the affinity of an antagonist, worked out from how it opposes an agonist. The inhibition is the drop in the measured response relative to a control, in per cent. Read a high inhibition as a strong effect.

Source of the values: ChEMBL document CHEMBL5154833, “New N-aryl-N'-aryl-/(thio)ureido-/sulfamoylamino-derivatives of alkyl/alkylcarbamoyl piperazines: Effect of structural modifications on selectivity over 5-HT1A receptor” (Eur J Med Chem, 2022).
